“And” between values parts separate entries of the source, which are not always exact repeats. Equal entries are not always repeated.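 The compound was tested at five concentrations on cells cultured in 96-well plates, with a 48-hour exposure period. GI50 = concentration required for 50% inhibition of growth. The concentration for full growth arrest is given as TGI.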

This passage reports GI50 and TGI results from PubChem BioAssay (NCI).

What all share (assay): NCI-60 cell line screen, 48 h
For assay [1], the system named is A549 NSCLC.
The test system of assay [2] is HOP-92 NSCLC.
Assay [3] concerns NCI-H522 lung.
The test system of assay [4] is RPMI-8226 leukemia.
Assay [5] deals with SK-MEL-5 melanoma.
For assay [6], the system named is SK-OV-3 ovarian.
Assay [7] deals with SN12C renal.
Assay [8] deals with SW-620 colon.
Assay [9] concerns UO-31 renal.
Assay [10] has as its system MALME-3M melanoma.

For `COc1cc(CNc2nc3cc(N)cc(N)c3nc2-c2ccccc2)cc(OC)c1OC`, the GI50 in assay [1] was 4.28 µM; in assay [2] it was 1.21 µM; in assay [3], above 50 µM; in assay [4], 0.697 µM; in assay [5] it was 0.721 µM; in assay [6], 5.36 µM. In addition, the results for the GI50 in [7], in assay [8] and in [9] were 8.66 µM, 1.54 µM and 11.1 µM, respectively. In addition, the TGI was 33.1 µM in [1]; 3.12 µM in assay [2]; above 50 µM in assay [3]; 3 µM in assay [4]; 7.79 µM in assay [5]; 13.9 µM in assay [6]. Also, the TGI in assay [7] was 16.7 µM; in [8], 4.51 µM; in assay [9], above 50 µM.
On to `COc1ccc(N2CCN(CN3CCN(c4ccc(OC)cc4)C3)C2)cc1`, for which the GI50 in [1] is above 100 µM; in assay [2], 57.9 µM; in assay [3], above 100 µM; in assay [4] it was 32.6 µM; in assay [5] it was above 100 µM; in [6] it was above 100 µM. Further, the GI50 in assay [7] is above 100 µM; in [8] it was 28.2 µM; in assay [9], above 100 µM. Also, the TGI in assay [1], in assay [2], in [3], in [4], in assay [5] and in assay [6] was above 100 µM throughout. Moreover, the TGI in assay [7], in assay [8] and in [9] was above 100 µM each time.
Take `CN(C)C(=S)/N=c1\ssc(=S)n1-c1ccccc1`: the TGI in [1] is 81.8 µM; in [2] it was 34.7 µM; in [10], 31 µM; in [3], 27.8 µM; in assay [5] it was above 100 µM; in [6] it was above 100 µM. Besides, the TGI in [7] was 28.8 µM; in assay [8] it was 22.6 µM; in [9] it was 44.1 µM.
`CSC1=Nc2c(c(C)c(-c3ccccc3)n2CCCCl)C2=NC(=O)CN12`: the GI50 in assay [1] is 7.68 µM; in [2] it was 11.5 µM; in assay [10] it was 8.38 µM; in [3], 3.86 µM; in assay [4], 3.68 µM; in [5], 3.49 µM. Also, the GI50 is 6.28 µM in assay [7], 4.79 µM in assay [8] and 10.5 µM in assay [9]. Also, the TGI was 65.8 µM in assay [1]; 37 µM in [2]; 23.5 µM in assay [10]; 19.2 µM in assay [3]; 66.5 µM in [4]; 14.1 µM in assay [5]. Besides, the TGI in assay [7] stood at 39 µM; in [8], 53.5 µM; in assay [9], 28.6 µM.
For the compound `NC(=S)N/N=C1\C(=O)N(CCc2ccccc2)C(=O)C1C(=O)NCCc1ccccc1` (stereo unspecified), the TGI in [2], in assay [10], in [3], in assay [4], in assay [5] and in assay [6] was above 100 µM in each case. The TGI in assay [7], in assay [8] and in assay [9] was above 100 µM each time.
Take `NCCn1ccc(NC(c2ccccc2)(c2ccccc2)c2ccccc2)nc1=O`: the TGI was found to be 75.7 µM in [1]; 27.4 µM in assay [2]; 33.4 µM in assay [10]; 32.8 µM in [3]; 46.3 µM in assay [4]; 42.3 µM in assay [7]. In addition, the TGI in assay [8] was 35.9 µM; in [9], above 100 µM.
On to `O=[N+]([O-])c1cccc(/C=C/c2ccccn2)c1`, for which the GI50 in [1] is 27.9 µM; in [2], 24.3 µM; in assay [10], 37.5 µM; in assay [4], 40.2 µM; in assay [5], 28.7 µM; in assay [6], 33.6 µM. Moreover, the GI50 in [7] is 38.8 µM; in assay [8], 5.95 µM; in assay [9], 23.3 µM. In addition, the TGI in [1], in assay [2], in assay [10], in [4], in assay [5] and in assay [6] was above 100 µM each time. Further, the TGI in assay [7], in [8] and in [9] was above 100 µM in each case.
On to `c1ccc(CCCNc2nnnc3ccccc23)cc1`, for which the TGI in assay [1], in assay [2], in [10], in assay [3], in assay [4] and in assay [5] was above 100 µM in each case. Further, the TGI in assay [6], in assay [7] and in assay [8] was above 100 µM each time.
Take `O=C1NC2(CCCC2)/C(=N\O)C12CCCC2`: the TGI in [1], in [2], in assay [10], in [3], in assay [5] and in assay [6] was above 100 µM in each case. Further, the TGI in [7], in assay [8] and in assay [9] was above 100 µM each time.
`COc1cc(OC)cc(-c2ccc(-c3ccc(C(=N)N)s3)s2)c1`: the GI50 in assay [1] was 1.63 µM; in [2], 0.883 µM and 0.528 µM; in [10], 1.25 µM; in assay [3], 1.77 µM; in assay [4] it was 0.286 µM and 0.218 µM; in assay [5] it was 1.41 µM. Also, the GI50 is 1.74 µM in assay [7], 0.291 µM in [8] and 1.51 µM in [9]. The TGI in assay [1] was 3.37 µM; in assay [2], 2.39 µM and 2.1 µM; in assay [10] it was 3.28 µM; in [3], 3.55 µM; in assay [4] it was 0.866 µM and 0.483 µM; in assay [5], 2.81 µM. The TGI worked out at 4.32 µM in [7], 1.02 µM in [8] and 3.31 µM in [9].
Regarding `Clc1ccccc1C1N2CCCCC2[C@@H]2c3[nH]c4ccccc4c3CCN12` (stereo partly specified), the TGI in assay [2] is above 100 µM; in assay [10], 22.1 µM; in [4] it was 66.6 µM; in assay [6], 55 µM; in [7] it was 30.9 µM; in assay [8], 31 µM. In assay [9], this compound yielded a TGI of 39 µM.
